Measurements published in the supplement of paper PMC10307832.

Key:
Experiment in all cases: relative viability (nuclei count vs DMSO), 5 days (fraction); higher = more cells survive
[1] = test system: NCI-H1975
Summary of the method: (§1)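 Lung cancer cell lines in 1536-well plates were dosed by pin tool the day after seeding, either with one drug alone or with a fixed anchor-drug dose plus five library-drug doses (not always all listed) in √10 steps. After 5 days, cells were fixed and their nuclei stained in one step (final 0.05% Triton X-100, 1% formaldehyde, 1 ug/ml Hoechst), then counted on 4× images. Relative viability is the nuclei count in treated wells divided by that in vehicle wells. Values are medians of duplicate plates.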

[2] = test system: ChaGo-K-1
Summary of the method: as §1

[3] = test system: NCI-H2347
Summary of the method: as §1

[4] = test system: NCI-H1734
Summary of the method: as §1

[5] = test system: NCI-H1355
Summary of the method: as §1

[6] = test system: NCI-H1944
Summary of the method: as §1

[7] = test system: LC-2-ad
Summary of the method: as §1

[8] = test system: NCI-H2087
Summary of the method: as §1

[9] = test system: SW 1573
Summary of the method: as §1

[10] = test system: SK-LU-1
Summary of the method: as §1

[11] = test system: PC-3 [JPC-3]
Summary of the method: as §1

[12] = test system: NCI-H838
Summary of the method: as §1

[13] = test system: EMC-BAC-2
Summary of the method: as §1

[14] = test system: NCI-H2126
Summary of the method: as §1

[15] = test system: HCC-44
Summary of the method: as §1

[16] = test system: HCC-78
Summary of the method: as §1

[17] = test system: HCC-366
Summary of the method: as §1

[18] = test system: UMC-11
Summary of the method: as §1

[19] = test system: NCI-H2009
Summary of the method: as §1

[20] = test system: NCI-H441
Summary of the method: as §1

[21] = test system: HOP-62
Summary of the method: as §1

[22] = test system: NCI-H727
Summary of the method: as §1

[23] = test system: NCI-H522
Summary of the method: as §1

SMILES: Oc1nc(-c2ccc(C(F)(F)F)cc2)nc2c1CSCC2 [XAV939] + CC1(C)CCC(c2ccc(Cl)cc2)=C(CN2CCN(c3ccc(C(=O)NS(=O)(=O)c4ccc(N[C@H](CCN5CCOCC5)CSc5ccccc5)c(S(=O)(=O)C(F)(F)F)c4)cc3)CC2)C1 [Navitoclax] (partner 0.5 µM)
- relative viability ([1]; first compound 0.08 µM): 1.08
- relative viability ([1]; first compound 0.253 µM): 0.784
- relative viability ([1]; first compound 0.8 µM): 1.06
- relative viability ([1]; first compound 2.53 µM): 0.768
- relative viability ([2]; first compound 0.08 µM): 0.898
- relative viability ([2]; first compound 0.253 µM): 0.914
- relative viability ([2]; first compound 0.8 µM): 0.998
- relative viability ([2]; first compound 2.53 µM): 1.04
- relative viability ([3]; first compound 0.08 µM): 0.788
- relative viability ([3]; first compound 0.253 µM): 0.886
- relative viability ([3]; first compound 0.8 µM): 0.75
- relative viability ([3]; first compound 2.53 µM): 0.698
- relative viability ([4]; first compound 0.08 µM): 0.921
- relative viability ([4]; first compound 0.253 µM): 0.866
- relative viability ([4]; first compound 0.8 µM): 0.856
- relative viability ([4]; first compound 2.53 µM): 0.855
- relative viability ([5]; first compound 0.08 µM): 0.913
- relative viability ([5]; first compound 0.253 µM): 0.825
- relative viability ([5]; first compound 0.8 µM): 0.805
- relative viability ([5]; first compound 2.53 µM): 0.637
- relative viability ([6]; first compound 0.08 µM): 1.07
- relative viability ([6]; first compound 0.253 µM): 0.986
- relative viability ([6]; first compound 0.8 µM): 1.01
- relative viability ([6]; first compound 2.53 µM): 1.1
- relative viability ([7]; first compound 0.08 µM): 0.389
- relative viability ([7]; first compound 0.253 µM): 0.429
- relative viability ([7]; first compound 0.8 µM): 0.6
- relative viability ([7]; first compound 2.53 µM): 0.428
- relative viability ([8]; first compound 0.08 µM): 1.13
- relative viability ([8]; first compound 0.253 µM): 0.668
- relative viability ([8]; first compound 0.8 µM): 1
- relative viability ([8]; first compound 2.53 µM): 0.95
- relative viability ([9]; first compound 0.08 µM): 1.16
- relative viability ([9]; first compound 0.253 µM): 0.957
- relative viability ([9]; first compound 0.8 µM): 0.83
- relative viability ([9]; first compound 2.53 µM): 0.792
- relative viability ([10]; first compound 0.08 µM): 0.674
- relative viability ([10]; first compound 0.253 µM): 0.9
- relative viability ([10]; first compound 0.8 µM): 0.714
- relative viability ([10]; first compound 2.53 µM): 0.791
- relative viability ([11]; first compound 0.08 µM): 0.728
- relative viability ([11]; first compound 0.253 µM): 0.737
- relative viability ([11]; first compound 0.8 µM): 0.814
- relative viability ([11]; first compound 2.53 µM): 0.724
- relative viability ([12]; first compound 0.08 µM): 1.21
- relative viability ([12]; first compound 0.253 µM): 0.994
- relative viability ([12]; first compound 0.8 µM): 1.07
- relative viability ([12]; first compound 2.53 µM): 0.868
- relative viability ([13]; first compound 0.08 µM): 1.28
- relative viability ([13]; first compound 0.253 µM): 1.04
- relative viability ([13]; first compound 0.8 µM): 1.1
- relative viability ([13]; first compound 2.53 µM): 0.793
- relative viability ([14]; first compound 0.08 µM): 0.773
- relative viability ([14]; first compound 0.253 µM): 0.653
- relative viability ([14]; first compound 0.8 µM): 0.813
- relative viability ([14]; first compound 2.53 µM): 0.739
- relative viability ([15]; first compound 0.08 µM): 1.01
- relative viability ([15]; first compound 0.253 µM): 0.945
- relative viability ([15]; first compound 0.8 µM): 0.948
- relative viability ([15]; first compound 2.53 µM): 0.899
- relative viability ([16]; first compound 0.08 µM): 0.842
- relative viability ([16]; first compound 0.253 µM): 0.736
- relative viability ([16]; first compound 0.8 µM): 0.825
- relative viability ([16]; first compound 2.53 µM): 0.613
- relative viability ([17]; first compound 0.08 µM): 1.12
- relative viability ([17]; first compound 0.253 µM): 1.09
- relative viability ([17]; first compound 0.8 µM): 1.05
- relative viability ([17]; first compound 2.53 µM): 0.942
- relative viability ([18]; first compound 0.08 µM): 0.318
- relative viability ([18]; first compound 0.8 µM): 0.3
- relative viability ([18]; first compound 2.53 µM): 0.271
- relative viability ([19]; first compound 0.08 µM): 1.17
- relative viability ([19]; first compound 0.253 µM): 1.12
- relative viability ([19]; first compound 0.8 µM): 1.13
- relative viability ([19]; first compound 2.53 µM): 1.06
- relative viability ([20]; first compound 0.08 µM): 0.571
- relative viability ([20]; first compound 0.253 µM): 0.683
- relative viability ([20]; first compound 0.8 µM): 0.487
- relative viability ([20]; first compound 2.53 µM): 0.973
- relative viability ([21]; first compound 0.08 µM): 1.08
- relative viability ([21]; first compound 0.253 µM): 1.02
- relative viability ([21]; first compound 0.8 µM): 0.995
- relative viability ([21]; first compound 2.53 µM): 0.932
- relative viability ([22]; first compound 0.08 µM): 0.407
- relative viability ([22]; first compound 0.253 µM): 0.231
- relative viability ([22]; first compound 0.8 µM): 0.362
- relative viability ([22]; first compound 2.53 µM): 0.44

SMILES: Oc1nc(-c2ccc(C(F)(F)F)cc2)nc2c1CSCC2 [XAV939] + Cc1nc(Nc2ncc(C(=O)Nc3c(C)cccc3Cl)s2)cc(N2CCN(CCO)CC2)n1 [Dasatinib] (partner 0.075 µM)
- relative viability ([1]; first compound 0.08 µM): 0.305
- relative viability ([1]; first compound 0.253 µM): 0.264
- relative viability ([1]; first compound 0.8 µM): 0.286
- relative viability ([1]; first compound 2.53 µM): 0.234
- relative viability ([2]; first compound 0.08 µM): 0.654
- relative viability ([2]; first compound 0.253 µM): 0.639
- relative viability ([2]; first compound 0.8 µM): 0.587
- relative viability ([2]; first compound 2.53 µM): 0.56
- relative viability ([3]; first compound 0.08 µM): 0.258
- relative viability ([3]; first compound 2.53 µM): 0.335
- relative viability ([4]; first compound 0.08 µM): 0.501
- relative viability ([4]; first compound 0.253 µM): 0.476
- relative viability ([4]; first compound 0.8 µM): 0.419
- relative viability ([4]; first compound 2.53 µM): 0.357
- relative viability ([5]; first compound 0.08 µM): 0.569
- relative viability ([5]; first compound 0.253 µM): 0.495
- relative viability ([5]; first compound 0.8 µM): 0.507
- relative viability ([5]; first compound 2.53 µM): 0.356
- relative viability ([6]; first compound 0.08 µM): 0.239
- relative viability ([6]; first compound 0.253 µM): 0.248
- relative viability ([6]; first compound 0.8 µM): 0.226
- relative viability ([6]; first compound 2.53 µM): 0.218
- relative viability ([7]; first compound 0.08 µM): 0.729
- relative viability ([7]; first compound 0.253 µM): 0.446
- relative viability ([7]; first compound 0.8 µM): 0.553
- relative viability ([7]; first compound 2.53 µM): 0.595
- relative viability ([8]; first compound 0.08 µM): 1.11
- relative viability ([8]; first compound 0.253 µM): 0.623
- relative viability ([8]; first compound 0.8 µM): 0.891
- relative viability ([8]; first compound 2.53 µM): 0.689
- relative viability ([9]; first compound 0.08 µM): 0.605
- relative viability ([9]; first compound 0.253 µM): 0.506
- relative viability ([9]; first compound 0.8 µM): 0.43
- relative viability ([9]; first compound 2.53 µM): 0.241
- relative viability ([10]; first compound 0.08 µM): 0.166
- relative viability ([10]; first compound 0.253 µM): 0.147
- relative viability ([10]; first compound 0.8 µM): 0.211
- relative viability ([10]; first compound 2.53 µM): 0.188
- relative viability ([11]; first compound 0.08 µM): 1.09
- relative viability ([11]; first compound 0.253 µM): 0.899
- relative viability ([11]; first compound 0.8 µM): 0.938
- relative viability ([11]; first compound 2.53 µM): 1.05
- relative viability ([12]; first compound 0.08 µM): 0.217
- relative viability ([12]; first compound 0.253 µM): 0.256
- relative viability ([12]; first compound 0.8 µM): 0.284
- relative viability ([12]; first compound 2.53 µM): 0.212
- relative viability ([13]; first compound 0.08 µM): 0.321
- relative viability ([13]; first compound 0.253 µM): 0.278
- relative viability ([13]; first compound 0.8 µM): 0.282
- relative viability ([13]; first compound 2.53 µM): 0.23
- relative viability ([14]; first compound 0.08 µM): 0.544
- relative viability ([14]; first compound 0.253 µM): 0.403
- relative viability ([14]; first compound 0.8 µM): 0.405
- relative viability ([14]; first compound 2.53 µM): 0.33
- relative viability ([16]; first compound 0.08 µM): 0.37
- relative viability ([16]; first compound 0.253 µM): 0.398
- relative viability ([16]; first compound 0.8 µM): 0.338
- relative viability ([16]; first compound 2.53 µM): 0.399
- relative viability ([17]; first compound 0.08 µM): 0.598
- relative viability ([17]; first compound 0.253 µM): 0.589
- relative viability ([17]; first compound 0.8 µM): 0.824
- relative viability ([17]; first compound 2.53 µM): 0.598
- relative viability ([18]; first compound 0.08 µM): 0.542
- relative viability ([18]; first compound 0.253 µM): 0.396
- relative viability ([18]; first compound 0.8 µM): 0.427
- relative viability ([18]; first compound 2.53 µM): 0.408
- relative viability ([19]; first compound 0.08 µM): 0.31
- relative viability ([19]; first compound 0.253 µM): 0.271
- relative viability ([19]; first compound 0.8 µM): 0.205
- relative viability ([19]; first compound 2.53 µM): 0.208
- relative viability ([20]; first compound 0.08 µM): 0.602
- relative viability ([20]; first compound 0.253 µM): 0.66
- relative viability ([20]; first compound 0.8 µM): 0.779
- relative viability ([20]; first compound 2.53 µM): 0.536
- relative viability ([23]; first compound 0.08 µM): 0.982
- relative viability ([23]; first compound 0.253 µM): 0.812
- relative viability ([23]; first compound 0.8 µM): 0.465
- relative viability ([23]; first compound 2.53 µM): 0.779
- relative viability ([21]; first compound 0.08 µM): 0.738
- relative viability ([21]; first compound 0.253 µM): 0.659
- relative viability ([21]; first compound 0.8 µM): 0.621
- relative viability ([21]; first compound 2.53 µM): 0.396
- relative viability ([22]; first compound 0.08 µM): 0.332
- relative viability ([22]; first compound 0.253 µM): 0.452
- relative viability ([22]; first compound 0.8 µM): 0.442
- relative viability ([22]; first compound 2.53 µM): 0.405
